The record followed here is ChEMBL document CHEMBL1649096, “Study of kaempferol glycoside as an insulin mimic reveals glycon to be the key active structure” (2011).

Activity calls are given as the source filed them. No cut-off for these calls is given here.

For experiment [1], the system named is L6. Put plainly: Insulin mimetic activity in rat L6 cells assessed as stimulation of 2-deoxyglucose uptake at 1 nM by enzymatic method relative to untreated control. It counts as functional.
The test system of experiment [2] is L6. Put plainly: Insulin mimetic activity in rat L6 cells assessed as stimulation of 2-deoxyglucose uptake at 0.1 nM by enzymatic method relative to untreated control. It counts as functional.
Experiment [3] deals with L6. Put plainly: Insulin mimetic activity in rat L6 cells assessed as stimulation of 2-deoxyglucose uptake at 1 mM by enzymatic method relative to untreated control. It counts as functional, cell-based.

As to `O=c1c(O[C@@H]2O[C@H](CO)[C@@H](O)[C@H](O)[C@H]2O)c(-c2ccc(O)cc2)oc2cc(O)cc(O)c12`, in experiment [1], the result was inactive. In addition, in experiment [2] (filed as antagonist), the Activity result is recorded as “Irreversible Antagonist”.
On to `C[C@H]1O[C@H](O[C@H]2[C@H](Oc3c(-c4ccc(O)cc4)oc4cc(O)cc(O)c4c3=O)O[C@H](CO)[C@@H](O)[C@@H]2O)[C@@H](O)[C@@H](O)[C@@H]1O`, for which the Activity in experiment [1] was 200%. Moreover, the result in experiment [3] was inactive.
On to `C[C@@H]1O[C@@H](O[C@H]2C(O)O[C@H](CO)[C@@H](O)[C@@H]2O)[C@H](O)[C@H](O)[C@H]1O` (some centres not stated) [NEOHESPERIDOSE], for which the Activity in experiment [1] and in experiment [2] was 200% each time.
In the case of `O=c1c(O)c(-c2ccc(O)cc2)oc2cc(O)cc(O)c12`, the outcome in experiment [1] was inactive.
